Columns and labels:
Type in all cases: cell-based
NFKB1 = experiment: Gene expression custom microarray, human skin fibroblasts (Example 1): NFKB1; settings: human skin fibroblasts, 10 uM, 24 hr
Description: (§1) Cell cultures: A human skin fibroblast cell culture (or cultures) was obtained through the Coriell Cell Repository from the National Institute on Aging Cell Repository (Camden, N.J.), or Promocell GmbH (Heidelberg, Germany). The initial culture was selected from the following cell lines: AG13066, AG11557, AG11796 or GM03651E. The cell lines were derived from donors as follows:
(§2) Experimental phase: When the appropriate quantity of cells had been grown, they were detached as described above, but at the final step were seeded into each well of one or more 6 well dishes. Each well received 2 ml of the cell suspension so they were seeded equally. The dishes were returned to the incubator until 85-95% confluency was reached.
(§3) It is at this stage that all wells were rinsed in PBS after aspirating the growth media. The compound(s) to be tested were previously mixed into a suitable solvent (e.g., DMSO or ethanol) that can be diluted to the desired concentration of test compound (10 μl) in the culture wells without exceeding maximum solvent concentrations and adversely effecting cell viability, and mixed with basal media. NOTE: Standard maximum levels of solvent are 0.1% for DMSO and 0.5% for ETOH.
(§4) Every 2 wells on the 6 well plate served as a biological replicate for the purposes of RNA isolation and genetic expression evaluations making each 6 well dish an n=3 for the test compound(s) contained in the media. Negative control plates (no test compound(s) and only basal media) were also generated. The plates were returned to the incubator for 24 hrs.
(§5) At the end of the 24 hr time period, the plates were removed from the incubator, the test media aspirated, and the cells rinsed with PBS. RNA isolation is performed using the BioRad Aurum Total RNA Mini Kit (Hercules, Calif.) per manufacturer's protocol; which is described, in brief, below: • Add 350 μl of lysis buffer to each well. Pipet multiple times to ensure thorough lysis. Add lysed cells to the collection tube. • Add 350 μl of 70% ETOH to the collection tube and mix thoroughly. • Pipet the generated lysate onto the spin column placed in a new 2 ml tube. Centrifuge for 30 sec between 8,000 and 10,000 g. • Place the spin column containing the now bound RNA, in a new 2 ml tube. Add 700 μl of low stringency wash solution to the spin column. Centrifuge for 30 sec between 8,000 and 10,000 g. Discard the flow through and replace spin column. • Add 80 μl of DNase I dilution to the spin column and incubate at room temperature for 15 minutes. • Add 700 μl of high stringency wash solution to the column and centrifuge for 30 sec between 8,000 and 10,000 g. Discard flow through. • Add 700 μl of low stringency wash solution to the column and centrifuge for 60 sec between 8,000 and 10,000 g. Discard flow through. • Centrifuge for 2 minutes to remove residual wash solution. • Transfer spin column to new 1.5 ml collection tube and add 80 μl of elution solution to the column. Allow 1 minute for saturation of the membrane and then centrifuge for 2 minutes to complete the RNA elution. • Quantify the quantity of RNA and store at −20 C° until use (no more than 1 month)
(§6) The genes tested were: • Cannabinoid receptor 1 (CB1(CNR1)) • Cannabinoid receptor 2 (CB2 (CNR2)) • Fatty acid amide hydrolase (FAAH) • Monoacylglycerol lipase (MGLL, i.e., MAGL) • Peroxisome proliferator-activated receptor gamma (PPARG) • Nuclear factor kappa-light-chain-enhancer of activated B cells (NFκβ) • Interleukin 1 Alpha (IL1alpha) • Cyclooxygenase 1 (PTGS1, i.e., COX1) • Transient receptor potential cation channel subfamily A member 1 (TRPA1) • Transient receptor potential cation channel subfamily V member 1 (TRPV1) • Transient receptor potential cation channel subfamily M member 8 (TRPM8) • Hemoglobin Subunit Beta (HBB) REFERENCE GENE • Ribosomal Protein L13a (RPL13A) REFERENCE GENE

MAGL = experiment: Gene expression custom microarray, human skin fibroblasts (Example 1): MAGL; settings: human skin fibroblasts, 10 uM, 24 hr
Description: as §1, §2
(§7) It is at this stage that all wells were rinsed in PBS after aspirating the growth media. The compound(s) to be tested were previously mixed into a suitable solvent (e.g., DMSO or ethanol) that can be diluted to the desired concentration of test compound (10 μl) in the culture wells without exceeding maximum solvent concentrations and adversely effecting cell viability, and mixed with basal media. NOTE: Standard maximum levels of solvent are 0.1% for DMSO and 0.5% for ETOH. The concentration of each test compound is found in Tables 1 & 2.
as §4, §5
(§8) The genes tested were: • Cannabinoid receptor 1 (CB1(CNR1)) • Cannabinoid receptor 2 (CB2 (CNR2)) • Fatty acid amide hydrolase (FAAH) • Monoacylglycerol lipase (MGLL, i.e., MAGL) • Peroxisome proliferator-activated receptor gamma (PPARG) • Nuclear factor kappa-light-chain-enhancer of activated B cells (NFκβ) • Interleukin 1 Alpha (IL1alpha) • Cyclooxygenase 1 (PTGS1, i.e., COX1) • Transient receptor potential cation channel subfamily A member 1 (TRPA1) • Transient receptor potential cation channel subfamily V member 1 (TRPV1) • Transient receptor potential cation channel subfamily M member 8 (TRPM8) • Hemoglobin Subunit Beta (HBB) REFERENCE GENE • Ribosomal Protein L13a (RPL13A) REFERENCE GENE […]

TRPM8 = experiment: Gene expression custom microarray, human skin fibroblasts (Example 1): TRPM8; settings: 10 uM, 24 hr
Description: as §1, §2, §7, §4, §5, §8

PTGS1 = experiment: Gene expression custom microarray, human skin fibroblasts (Example 1): PTGS1; settings: human skin fibroblasts, 10 uM, 24 hr
Description: as §1, §2, §7, §4, §5, §8

TRPA1 = experiment: Gene expression custom microarray, human skin fibroblasts (Example 1): TRPA1; settings: human skin fibroblasts, 10 uM, 24 hr
Description: as §1, §2, §7, §4, §5, §8

TRPV1 = experiment: Gene expression custom microarray, human skin fibroblasts (Example 1): TRPV1; settings: 10 uM, 24 hr
Description: as §1, §2, §7, §4
At the end of the 24 hr time period, the plates were removed from the incubator, the test media aspirated, and the cells rinsed with PBS. RNA isolation is performed using the BioRad Aurum Total RNA Mini Kit (Hercules, Calif.) per manufacturer's protocol; which is described, in brief, below: • Add 350 μl of lysis buffer to each well. Pipet multiple times to ensure thorough lysis. Add lysed cells to the collection tube. • Add 350 μl of 70% ETOH to the collection tube and mix thoroughly. • Pipet the generated lysate onto the spin column placed in a new 2 ml tube. Centrifuge for 30 sec between 8,000 and 10,000 g. • Place the spin column containing the now bound RNA, in a new 2 ml tube. Add 700 μl of low stringency wash solution to the spin column. Centrifuge for 30 sec between 8,000 and 10,000 g. […] Allow 1 minute for saturation of the membrane and then centrifuge for 2 minutes to complete the RNA elution. • Quantify the quantity of RNA and store at −20 C° until use (no more than 1 month) […]

CNR1 = experiment: Gene expression custom microarray, human skin fibroblasts (Example 1): CNR1; settings: human skin fibroblasts, 10 uM, 24 hr
Description: as §1, §2, §7, §4, §5, §8

CNR2 = experiment: Gene expression custom microarray, human skin fibroblasts (Example 1): CNR2; settings: human skin fibroblasts, 10 uM, 24 hr
Description: as §1, §2, §7, §4, §5, §8

IL1A = experiment: Gene expression custom microarray, human skin fibroblasts (Example 1): IL1A; settings: 10 uM, 24 hr
Description: as §1, §2, §7, §4, §5, §8

PPARG = experiment: Gene expression custom microarray, human skin fibroblasts (Example 1): PPARG; settings: human skin fibroblasts, 10 uM, 24 hr
Description: as §1, §2, §3, §4, §5, §6

FAAH = experiment: Gene expression custom microarray, human skin fibroblasts (Example 1): FAAH; settings: human skin fibroblasts, 10 uM, 24 hr
Description: as §1, §2, §7, §4, §5, §8

CCCCCCCC/C=C\CCCCCCCC(=O)NCCO [N-Oleylethanolamide]
NFKB1↓ gene expression, fold increase or decrease vs untreated cells (NFKB1): 1.5 fold
MAGL↓ gene expression, fold increase or decrease vs untreated cells (MAGL): 2.5 fold
TRPM8↑ gene expression, fold increase or decrease vs untreated cells (TRPM8): −1.4 fold
PTGS1↓ gene expression, fold increase or decrease vs untreated cells (PTGS1): 1.5 fold
TRPA1↑ gene expression, fold increase or decrease vs untreated cells (TRPA1): 1.1 fold
TRPV1↑ gene expression, fold increase or decrease vs untreated cells (TRPV1): −1.6 fold
CNR1↑ gene expression, fold increase or decrease vs untreated cells (CNR1): −1.9 fold
CNR2↑ gene expression, fold increase or decrease vs untreated cells (CNR2): −2.4 fold
IL1A↓ gene expression, fold increase or decrease vs untreated cells (IL1A): −1.9 fold
PPARG↑ gene expression, fold increase or decrease vs untreated cells (PPARG): 2.4 fold
FAAH↓ gene expression, fold increase or decrease vs untreated cells (FAAH): −1.1 fold

Reference: US20220202739A1, “ENDOCANNABINOID MIMETIC AND ANTI-INFLAMMATORY COMPOUND CONTAINING COMPOSITIONS, METHODS OF PREPARATION AND USES THEREOF” (priority 2019, published 2022)
